This assay relates to L1210 leukemia ip in BDF1 mice, survival T/C. The assay is described as follows: NCI In Vivo Anticancer Drug Screen. Data for tumor model L1210 Leukemia (intraperitoneal) in B6D2F1 (BDF1) mice. The conditions noted are these: endpoint: mean survival time, higher = longer survival. An outline of the steps:
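Read-out is survival time, reported as the treated-group measurement over the vehicle-control measurement.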

Setting [1] is: dose: 100.0 mg/kg/injection, schedule: Q04DX003 (ip), vehicle: saline with Tween-80.
[2] abbreviates: dose: 200.0 mg/kg/injection, schedule: Q01DX001 (ip), vehicle: saline.
The mark [3] stands for this setting: dose: 400.0 mg/kg/injection, schedule: Q01DX001 (ip), vehicle: saline.

“And” between values parts separate entries of the source, which are not always exact repeats. Equal entries are not always repeated. Inconclusive results and toxic doses are left out.

For the compound `COc1ccc(/C=N/NC(N)=S)cc1`, the T/C is 101 % of control and 92 % of control (dose: 32.0 mg/kg/injection, schedule: Q01DX009 (ip), vehicle: saline); 97 % of control and 91 % of control (dose: 32.0 mg/kg/injection, schedule: Q01DX010 (ip), vehicle: saline); 98 % of control and 100 % of control (dose: 64.0 mg/kg/injection, schedule: Q01DX009 (ip), vehicle: saline); 96 % of control and 91 % of control (dose: 64.0 mg/kg/injection, schedule: Q01DX010 (ip), vehicle: saline); 92 % of control (dose: 64.0 mg/kg/injection, schedule: Q01DX010 (iv), vehicle: saline); 104 % of control (dose: 100.0 mg/kg/injection, schedule: Q01DX009 (ip), vehicle: saline). Also, the T/C by setting is: under setting [1], 95 % of control; (dose: 128.0 mg/kg/injection, schedule: Q01DX009 (ip), vehicle: saline) 97 % of control and 102 % of control; (dose: 128.0 mg/kg/injection, schedule: Q01DX010 (ip), vehicle: saline) 94 % of control and 95 % of control; (dose: 128.0 mg/kg/injection, schedule: Q01DX010 (iv), vehicle: saline) 92 % of control; under setting [2], 94 % of control; (dose: 200.0 mg/kg/injection, schedule: Q01DX009 (ip), vehicle: acetone) 95 % of control. In addition, the T/C by setting is: (dose: 200.0 mg/kg/injection, schedule: Q01DX009 (ip), vehicle: saline) 100 % of control; (dose: 200.0 mg/kg/injection, schedule: Q04DX003 (ip), vehicle: saline with Tween-80) 95 % of control; (dose: 256.0 mg/kg/injection, schedule: Q01DX009 (ip), vehicle: saline) 101 % of control and 109 % of control; (dose: 256.0 mg/kg/injection, schedule: Q01DX010 (ip), vehicle: saline) 97 % of control and 90 % of control; (dose: 256.0 mg/kg/injection, schedule: Q01DX010 (iv), vehicle: saline) 102 % of control; under setting [3], 100 % of control. For the same compound, the T/C is 88 % of control (dose: 400.0 mg/kg/injection, schedule: Q01DX009 (ip), vehicle: acetone); 98 % of control (dose: 400.0 mg/kg/injection, schedule: Q01DX009 (ip), vehicle: saline); 102 % of control (dose: 400.0 mg/kg/injection, schedule: Q04DX003 (ip), vehicle: saline with Tween-80); 96 % of control (dose: 800.0 mg/kg/injection, schedule: Q01DX001 (ip), vehicle: saline).

As for `CCCCC(=O)N/N=C\c1ccc(OCc2ccccc2)cc1`, the T/C was 87 % of control (dose: 100.0 mg/kg/injection, schedule: Q01DX001 (ip), vehicle: saline); 92 % of control under setting [2]; 87 % of control under setting [3].

Regarding `CC(C)[N+]1=C(/C=C/c2ccc3cccnc3c2O)C(C)(C)c2ccccc21`, the T/C was 97 % of control (dose: 50.0 mg/kg/injection, schedule: Q01DX001 (ip), vehicle: carboxymethylcellulose (CMC)); 103 % of control (dose: 100.0 mg/kg/injection, schedule: Q01DX001 (ip), vehicle: carboxymethylcellulose (CMC)); 95 % of control (dose: 200.0 mg/kg/injection, schedule: Q01DX001 (ip), vehicle: carboxymethylcellulose (CMC)); 95 % of control (dose: 400.0 mg/kg/injection, schedule: Q01DX001 (ip), vehicle: carboxymethylcellulose (CMC)).

For `C[Si](C)(C)C1C2c3ccccc3C1C1(C#N)C(=O)C(Cl)=C(Cl)C(=O)C21C#N` (centres undefined), under setting [1], the T/C is 93 % of control.

Take `CCCCCCC(CCCCCC)CC1CCCC1`: the T/C (dose: 50.0 mg/kg/injection, schedule: Q04DX002 (sc), vehicle: olive oil, sesame oil, peanut oil) is 103 % of control; the T/C (dose: 100.0 mg/kg/injection, schedule: Q04DX002 (sc), vehicle: olive oil, sesame oil, peanut oil) was 97 % of control; the T/C (dose: 200.0 mg/kg/injection, schedule: Q04DX002 (sc), vehicle: olive oil, sesame oil, peanut oil) is 97 % of control.

Regarding `O=C(NCCO)C1OCOC2C(CO)OCOC12` (centres undefined), the T/C reads like this: (dose: 12.5 mg/kg/injection, schedule: Q04DX002 (ip), vehicle: saline) 101 % of control; (dose: 25.0 mg/kg/injection, schedule: Q04DX002 (ip), vehicle: saline) 101 % of control; (dose: 50.0 mg/kg/injection, schedule: Q04DX002 (ip), vehicle: saline) 101 % of control; (dose: 100.0 mg/kg/injection, schedule: Q04DX002 (ip), vehicle: saline) 93 % of control.

As to `CN(C(N)=O)C1CCCC1`, the T/C runs as follows: (dose: 100.0 mg/kg/injection, schedule: Q04DX003 (ip), vehicle: saline) 96 % of control; (dose: 200.0 mg/kg/injection, schedule: Q04DX003 (ip), vehicle: saline) 91 % of control; (dose: 400.0 mg/kg/injection, schedule: Q04DX003 (ip), vehicle: saline) 96 % of control.

In the case of `OCCN1CCN(CCCN2c3ccccc3Sc3ccc(C(F)(F)F)cc32)CC1`, the T/C runs as follows: (dose: 0.09 mg/kg/injection, schedule: Q01DX009 (ip), vehicle: Klucel (hydroxypropylcellulose) (HPC)) 109 % of control; (dose: 0.12 mg/kg/injection, schedule: Q01DX009 (ip), vehicle: acetone) 107 % of control; (dose: 0.19 mg/kg/injection, schedule: Q01DX009 (ip), vehicle: Klucel (hydroxypropylcellulose) (HPC)) 97 % of control; (dose: 0.25 mg/kg/injection, schedule: Q01DX009 (ip), vehicle: acetone) 106 % of control; (dose: 0.39 mg/kg/injection, schedule: Q01DX009 (ip), vehicle: Klucel (hydroxypropylcellulose) (HPC)) 120 % of control; (dose: 0.39 mg/kg/injection, schedule: Q01DX009 (ip), vehicle: saline) 97 % of control. The T/C runs as follows: (dose: 0.39 mg/kg/injection, schedule: Q04DX003 (ip), vehicle: saline) 101 % of control; (dose: 0.5 mg/kg/injection, schedule: Q01DX009 (ip), vehicle: acetone) 112 % of control; (dose: 0.58 mg/kg/injection, schedule: Q01DX009 (ip), vehicle: saline) 111 % of control; (dose: 0.78 mg/kg/injection, schedule: Q01DX009 (ip), vehicle: Klucel (hydroxypropylcellulose) (HPC)) 101 % of control; (dose: 0.78 mg/kg/injection, schedule: Q01DX009 (ip), vehicle: saline) 108 % of control; (dose: 0.78 mg/kg/injection, schedule: Q04DX003 (ip), vehicle: saline) 97 % of control and 108 % of control. Further, the T/C was 120 % of control (dose: 1.0 mg/kg/injection, schedule: Q01DX009 (ip), vehicle: acetone); 108 % of control (dose: 1.17 mg/kg/injection, schedule: Q01DX009 (ip), vehicle: saline); 98 % of control (dose: 1.25 mg/kg/injection, schedule: Q01DX009 (ip), vehicle: saline); 92 % of control (dose: 1.56 mg/kg/injection, schedule: Q01DX009 (ip), vehicle: Klucel (hydroxypropylcellulose) (HPC)); 87 % of control (dose: 1.56 mg/kg/injection, schedule: Q01DX009 (ip), vehicle: saline); 97 % of control and 108 % of control (dose: 1.56 mg/kg/injection, schedule: Q04DX003 (ip), vehicle: saline). For the same compound, the T/C (dose: 2.34 mg/kg/injection, schedule: Q01DX009 (ip), vehicle: saline) was 97 % of control; the T/C (dose: 3.12 mg/kg/injection, schedule: Q04DX003 (ip), vehicle: saline) was 102 % of control and 101 % of control; the T/C (dose: 4.68 mg/kg/injection, schedule: Q04DX003 (ip), vehicle: Klucel (hydroxypropylcellulose) (HPC)) was 92 % of control; the T/C (dose: 5.0 mg/kg/injection, schedule: Q01DX009 (ip), vehicle: saline) was 94 % of control and 88 % of control; the T/C (dose: 6.25 mg/kg/injection, schedule: Q04DX003 (ip), vehicle: saline) is 100 % of control and 114 % of control and 112 % of control; the T/C (dose: 6.6 mg/kg/injection, schedule: Q04DX003 (ip), vehicle: saline) was 106 % of control. The T/C is 107 % of control (dose: 9.37 mg/kg/injection, schedule: Q04DX003 (ip), vehicle: Klucel (hydroxypropylcellulose) (HPC)); 117 % of control (dose: 10.0 mg/kg/injection, schedule: Q04DX003 (ip), vehicle: saline); 107 % of control and 116 % of control (dose: 12.5 mg/kg/injection, schedule: Q04DX003 (ip), vehicle: saline); 117 % of control (dose: 15.0 mg/kg/injection, schedule: Q04DX003 (ip), vehicle: saline); 164 % of control (dose: 50.0 mg/kg/injection, schedule: Q04DX003 (ip), vehicle: saline).

As for `O=C1c2cccc3cccc(c23)C(=O)N1O`, the T/C runs as follows: (dose: 100.0 mg/kg/injection, schedule: Q01DX001 (ip), vehicle: other) 104 % of control; (dose: 200.0 mg/kg/injection, schedule: Q01DX001 (ip), vehicle: other) 98 % of control; (dose: 400.0 mg/kg/injection, schedule: Q01DX001 (ip), vehicle: other) 106 % of control.

Regarding `C=CCNC(=S)N(C)Cc1ccccc1Cl`, the T/C reads like this: (dose: 100.0 mg/kg/injection, schedule: Q01DX009 (ip), vehicle: Klucel (hydroxypropylcellulose) (HPC)) 90 % of control; (dose: 200.0 mg/kg/injection, schedule: Q01DX009 (ip), vehicle: Klucel (hydroxypropylcellulose) (HPC)) 98 % of control.
